Assay results: patent US5242938A, “Derivatives of virginiamycin M1” (Merck & Co., Inc., priority 1992, dated 1993)
Converted amounts (≈) assume the structure as drawn. Like-named read-outs stand apart in the source and are kept apart here.

Key:
[1] = system: Salmonella gallinarum (Mb 1287); assay: Agar diffusion disc assay, Salm 1287; format: cell-based; details: for zone of inhibition at 20 µg/disc: Salmonella enterica, GALLINARUM, 18 h, read-out: Inhibition zone diameter, Salm 1287
Method: (§1) Cultures employed in evaluating antimicrobial activity included plant pathogens, human and animal opportunistic pathogens and selected laboratory strains having specific-antibiotic sensitivities or chromosomal or R-plasmid-mediated resistances. […] The agar diffusion MIC's were determined using the method described by Barry in Anitbiotics in Laboratory Medicine, 2nd Ed., Ed. V. Lorian, pp. 1-63, William & Wilkins, Baltimore, 1986. Each test compound was dissolved in methanol to a concentration of 1 mg/ml. Serial dilutions of these compounds were also made to determine an agar diffusion MIC. 20 μl of each dilution was pipetted on to 6 mm paper discs, air dried and placed onto the surface of an agar plate seeded with the appropriate bacteria (~10^6 cfu). Seeded agar plates were incubated overnight (~18 hours) at 25° C. Zone sizes were measured to the nearest mm. Each compound was tested in triplicate and the results shown represent the mean.

[2] = system: Streptococcus faecium (Mb 2820); assay: Agar diffusion disc assay, Str 2820; format: cell-based; set-up: Inhibition zone diameter, Str 2820: dose or concentration left out as unconfirmed; details: for zone of inhibition at 20 µg/disc: Enterococcus faecium, 18 h
Method: as §1

[3] = system: Micrococcus luteus (Mb 1101, ATCC 9341); assay: Agar diffusion disc assay, Micr 1101; format: cell-based; details: for MIC: read-out: Agar Diffusion MIC versus Micrococcus luteus
Method: as §1

[4] = system: Bacillus subtilis (Mb 964, ATCC 6633); assay: Agar diffusion disc assay, Subt 964; format: cell-based; details: for zone of inhibition at 20 µg/disc: Bacillus subtilis, ATCC6633, 18 h, read-out: Inhibition zone diameter, Subt 964
Method: as §1

[5] = system: Escherichia coli (Mb 1418); assay: Agar diffusion disc assay, Coli 1418; format: cell-based; details: @ 20 g/disc
Method: as §1

[6] = system: Corynebacterium pseudodiphtheriticum (Mb 261, ATCC 9742); assay: Agar diffusion disc assay, Cory 261; format: cell-based; set-up: Inhibition zone diameter, Cory 261: dose or concentration left out as unconfirmed; details: for zone of inhibition at 20 µg/disc: Corynebacterium pseudodiphtheriticum, ATCC9742, 18 h
Method: as §1

Bacillus sp. (Mb 633) = assay: Agar diffusion disc assay, Baci 633; format: cell-based; details: @ 20 g/disc
Method: as §1

[7] = system: En terobacter aergenes (Mb 835); assay: Agar diffusion disc assay, Ent 835; format: cell-based; details: for zone of inhibition at 20 µg/disc: 18 h, read-out: Inhibition zone diameter, Ent 835
Method: as §1

CCK-A (rat pancreas) [8] = target: T1, CCK-A (rat pancreas) (Rattus norvegicus, UniProt P30551); assay: [125I]BHCCK-8 radioligand binding, rat pancreatic preparation; details: read-out: CCK binding inhibition - IC50, [125I]BHCCK
T1 construct: from tissue; host or cells: rat pancreas
T1 sequence (P30551 1-444): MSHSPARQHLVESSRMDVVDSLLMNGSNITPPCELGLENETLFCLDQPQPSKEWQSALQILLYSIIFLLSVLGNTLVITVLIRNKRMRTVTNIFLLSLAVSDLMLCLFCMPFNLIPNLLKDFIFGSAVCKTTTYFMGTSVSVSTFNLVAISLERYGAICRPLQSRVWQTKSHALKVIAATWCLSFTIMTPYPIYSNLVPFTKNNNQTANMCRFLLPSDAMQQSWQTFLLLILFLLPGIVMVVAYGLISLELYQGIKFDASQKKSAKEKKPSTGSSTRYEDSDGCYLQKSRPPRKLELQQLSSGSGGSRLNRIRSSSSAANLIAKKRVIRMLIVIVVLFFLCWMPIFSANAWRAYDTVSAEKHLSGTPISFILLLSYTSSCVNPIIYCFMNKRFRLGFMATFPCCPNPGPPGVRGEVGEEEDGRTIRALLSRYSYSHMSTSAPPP
Method: (§2) The resulting supernatant was re-spun at 20,000×g for 20 minutes. […] Incubations were for 40 minutes at 4° C. and were terminated by filtration and washing with ice cold 100 mM saline. […] Incubations were for 30 minutes at room temperature and were terminated by filtration over GF/C filters and washing with 100 mM NaCl.

[9] = target: T2, CCK-B (guinea pig cortex) (Cavia porcellus, UniProt H0VZC5); assay: [3H]L-365,260 CCK-B selective antagonist ligand binding, brain membranes; details: for IC50: read-out: CCK binding inhibition - IC50, [3H]L-365,260
T2 construct: guinea pig cortical preparations; from tissue; host or cells: guinea pig brain cortex membranes
T2 sequence (H0VZC5 1-426): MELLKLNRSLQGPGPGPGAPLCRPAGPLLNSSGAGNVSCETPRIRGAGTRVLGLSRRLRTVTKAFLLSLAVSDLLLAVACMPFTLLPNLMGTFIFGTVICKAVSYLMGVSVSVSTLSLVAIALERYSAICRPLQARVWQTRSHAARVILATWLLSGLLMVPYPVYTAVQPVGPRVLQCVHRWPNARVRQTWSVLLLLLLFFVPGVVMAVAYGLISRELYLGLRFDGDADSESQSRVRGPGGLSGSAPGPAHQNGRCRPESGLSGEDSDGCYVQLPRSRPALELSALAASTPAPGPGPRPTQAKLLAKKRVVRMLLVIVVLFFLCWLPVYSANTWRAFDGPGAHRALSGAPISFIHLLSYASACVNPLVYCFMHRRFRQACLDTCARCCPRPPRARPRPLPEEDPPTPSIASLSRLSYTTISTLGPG
Method: as §2

[10] = system: Staphylococcus aureus (Mb 108, ATCC 6538P); assay: Agar diffusion disc assay, Sta 108; format: cell-based; details: for zone of inhibition at 20 µg/disc: Staphylococcus aureus, ATCC6538P, 18 h
Method: as §1

[11] = system: Staphylococcus aureus (Mb 2983); assay: Agar diffusion disc assay, Sta 2983; format: cell-based; details: for zone of inhibition at 20 µg/disc: Staphylococcus aureus, 18 h
Method: as §1

[12] = system: Streptococcus agalactiae (Mb 2875); assay: Agar diffusion disc assay, Str 2875; format: cell-based; details: for zone of inhibition at 20 µg/disc: Streptococcus agalactiae, 18 h
Method: as §1

[13] = target: T2, CCK-B (guinea pig cortex); assay: [125I]BHCCK-8 radioligand binding, guinea pig cortical preparation; details: read-out: CCK binding inhibition - IC50, [125I]BHCCK
Method: as §2

[14] = system: Pseudomonas stutzeri (Mb 1231, ATCC 11607); assay: Agar diffusion disc assay, Pseu 1231; format: cell-based; details: @ 20 g/disc
Method: as §1

CCK-A (rat pancreas) [15] = target: T1, CCK-A (rat pancreas); assay: [3H]L-364,718 CCK-A selective antagonist ligand binding, pancreas; details: read-out: CCK binding inhibition - IC50, [3H]L-364,718
Method: as §2

CC1=C\[C@@H](O)CC(O)Cc2nc(co2)C(=O)N2CCC=C2C(=O)O[C@H](C(C)C)[C@H](C)/C=C/C(=O)NC\C=C\1 (single isomer, unassigned) [Example 14A]
zone of inhibition at 20 µg/disc [1]: 0 mm
zone of inhibition at 20 µg/disc ([2]; read-out: Inhibition zone diameter, Str 2820, @ 20 g/disc): 16 mm
zone of inhibition at 20 µg/disc ([3]; Micrococcus luteus, ATCC9341, 18 h, read-out: Inhibition zone diameter, Micr 1101, @ 20 g/disc): 35 mm
zone of inhibition at 1.25 µg/disc ([3]; Micrococcus luteus, ATCC9341, 18 h, read-out: Mean of triplicate zone size versus Micrococcus luteus, 1.25 μg/disc, 25° C., ~18 hours): 25 mm
zone of inhibition at 2.5 µg/disc ([3]; Micrococcus luteus, ATCC9341, 18 h, read-out: Mean of triplicate zone size versus Micrococcus luteus, 2.50 μg/disc, 25° C., ~18 hours): 27 mm
zone of inhibition at 5 µg/disc ([3]; Micrococcus luteus, ATCC9341, 18 h, read-out: Mean of triplicate zone size versus Micrococcus luteus, 5.00 μg/disc, 25° C., ~18 hours): 29 mm
zone of inhibition at 20 µg/disc ([3]; Micrococcus luteus, ATCC9341, 18 h, read-out: Mean of triplicate zone size versus Micrococcus luteus, 20.0 μg/disc, 25° C., ~18 hours): 33 mm
MIC [3]: 0.08 µM (≈ 0.0422 µg/mL)
zone of inhibition at 20 µg/disc [4]: 0 mm
Inhibition zone diameter, Coli 1418 [5]: 8 mm
zone of inhibition at 20 µg/disc ([6]; read-out: Inhibition zone diameter, Cory 261, @ 20 g/disc): 30 mm
Inhibition zone diameter, Baci 633 (Bacillus sp. (Mb 633)): 9 mm
zone of inhibition at 20 µg/disc [7]: 0 mm
IC50 (CCK-A (rat pancreas) [8]): > 3 µM
A.R. = agonist ratio = IC50([3H]L365,260)/IC50([125I]CCK) [9]: 0.1
IC50 [9]: 0.14 µM
zone of inhibition at 20 µg/disc ([10]; read-out: Inhibition zone diameter, Sta 108, @ 20 g/disc): 27 mm
zone of inhibition at 20 µg/disc ([11]; read-out: Inhibition zone diameter, Sta 2983, @ 20 g/disc): 22 mm
zone of inhibition at 20 µg/disc ([12]; read-out: Inhibition zone diameter, Str 2875, @ 20 g/disc): 30 mm
IC50 [13]: 2.1 µM
Inhibition zone diameter, Pseu 1231 [14]: 15 mm
IC50 (CCK-A (rat pancreas) [15]): > 3 µM

CC1=C\[C@@H](O)CC(O)Cc2nc(co2)C(=O)N2CCC=C2C(=O)O[C@H](C(C)C)[C@H](C)/C=C/C(=O)NC\C=C\1 (single isomer, unassigned) [Example 14B]
Inhibition zone diameter, Salm 1287 ([1]; @ 20 g/disc): 0 mm
Inhibition zone diameter, Str 2820 [2]: 15 mm
Mean of triplicate zone size versus Micrococcus luteus ([3]; 1.25 μg/disc, 25° C., ~18 hours): 22 mm
Mean of triplicate zone size versus Micrococcus luteus ([3]; 2.50 μg/disc, 25° C., ~18 hours): 25 mm
Mean of triplicate zone size versus Micrococcus luteus ([3]; 5.00 μg/disc, 25° C., ~18 hours): 28 mm
Mean of triplicate zone size versus Micrococcus luteus ([3]; 10.0 μg/disc, 25° C., ~18 hours): 30 mm
Mean of triplicate zone size versus Micrococcus luteus ([3]; 20.0 μg/disc, 25° C., ~18 hours): 32 mm
Inhibition zone diameter, Micr 1101 ([3]; @ 20 µg/disc): 35 mm
MIC [3]: 0.24 µM (≈ 0.127 µg/mL)
Inhibition zone diameter, Subt 964 ([4]; @ 20 g/disc): 0 mm
Inhibition zone diameter, Coli 1418 [5]: 0 mm
Inhibition zone diameter, Cory 261 [6]: 26 mm
Inhibition zone diameter, Baci 633 (Bacillus sp. (Mb 633)): 0 mm
Inhibition zone diameter, Ent 835 ([7]; @ 20 g/disc): 0 mm
IC50 (CCK-A (rat pancreas) [8]): > 3 µM
A.R. = agonist ratio = IC50([3H]L365,260)/IC50([125I]CCK) [9]: 1
IC50 [9]: 0.53 µM
Inhibition zone diameter, Sta 108 ([10]; @ 20 g/disc): 22 mm
Inhibition zone diameter, Sta 2983 ([11]; @ 20 g/disc): 11 mm
Inhibition zone diameter, Str 2875 ([12]; @ 20 µg/disc): 18 mm
IC50 [13]: 0.4 µM
Inhibition zone diameter, Pseu 1231 [14]: 0 mm
IC50 (CCK-A (rat pancreas) [15]): > 3 µM

CC(=O)OC1=Cc2nc(co2)C(=O)N2CCC=C2C(=O)O[C@H](C(C)C)[C@H](C)/C=C/C(=O)NC/C=C/C(C)=C/[C@@H](OC(C)=O)C1 [Example 1]
zone of inhibition at 20 µg/disc ([1]; @ 20 g/disc): 0 mm
zone of inhibition at 20 µg/disc ([2]; @ 20 g/disc, read-out: Inhibition zone diameter, Str 2820): 0 mm
zone of inhibition at 20 µg/disc ([3]; Micrococcus luteus, ATCC9341, 18 h, @ 20 g/disc, read-out: Inhibition zone diameter, Micr 1101): 17 mm
MIC ([3]; Micrococcus luteus, ATCC9341, 18 h): 1.92 µM (≈ 1.17 µg/mL)
zone of inhibition at 5 µg/disc ([3]; Micrococcus luteus, ATCC9341, 5.00 μg/disc, 25° C., ~18 hours, read-out: Mean of triplicate zone size versus Micrococcus luteus): 12 mm
zone of inhibition at 10 µg/disc ([3]; Micrococcus luteus, ATCC9341, 10.0 μg/disc, 25° C., ~18 hours, read-out: Mean of triplicate zone size versus Micrococcus luteus): 15 mm
zone of inhibition at 20 µg/disc ([3]; Micrococcus luteus, ATCC9341, 20.0 μg/disc, 25° C., ~18 hours, read-out: Mean of triplicate zone size versus Micrococcus luteus): 16 mm
zone of inhibition at 20 µg/disc ([4]; @ 20 g/disc): 0 mm
zone of inhibition at 20 µg/disc ([5]; Escherichia coli, 18 h, read-out: Inhibition zone diameter, Coli 1418): 0 mm
zone of inhibition at 20 µg/disc ([6]; @ 20 g/disc, read-out: Inhibition zone diameter, Cory 261): 14 mm
zone of inhibition at 20 µg/disc (Bacillus sp. (Mb 633); Bacillus, 18 h, read-out: Inhibition zone diameter, Baci 633): 0 mm
zone of inhibition at 20 µg/disc ([7]; @ 20 g/disc): 0 mm
IC50 (CCK-A (rat pancreas) [8]): > 3 µM
A.R. = agonist ratio = IC50([3H]L365,260)/IC50([125I]CCK) [9]: > 25
percentage in parentheses beside >3.0, [3H]L-365,260 (inhibition at top concentration, not defined) ([9]; beside IC50 >3.0): 13%
IC50 [9]: > 3 µM
zone of inhibition at 20 µg/disc ([10]; @ 20 g/disc, read-out: Inhibition zone diameter, Sta 108): 9 mm
zone of inhibition at 20 µg/disc ([11]; @ 20 g/disc, read-out: Inhibition zone diameter, Sta 2983): 0 mm
zone of inhibition at 20 µg/disc ([12]; @ 20 g/disc, read-out: Inhibition zone diameter, Str 2875): 0 mm
IC50 [13]: 0.8 µM
zone of inhibition at 20 µg/disc ([14]; Stutzerimonas stutzeri, ATCC11607, 18 h, read-out: Inhibition zone diameter, Pseu 1231): 0 mm
IC50 (CCK-A (rat pancreas) [15]): > 3 µM
